Results on one molecule are retold here after article PMC2653189 (PLoS ONE, 2009).

This assay has as its system IFN-γ-mediated Stat1 phosphorylation. Description: Immunoblot of IFN-γ-mediated Stat1 phosphorylation in HepG2 cells. The settings on record: compound 300 µM 1 hour, IFN-γ 30 ng/ml 30 min. In kind it is cell-based, human. The procedure: The human hepatocellular carcinoma cell line (HepG2) was grown in 6-well plates under standard conditions. Cells were pretreated with compounds (0, 1, 3, 10, 30, 100 and 300 µM) for 1 hour then stimulated under optimal conditions with either interleukin-6 (IL-6; 30 ng/ml for 30 min) to activate Stat3 or interferon gamma (IFN-γ; 30 ng/ml for 30 min) to activate Stat1 [28]. Cultures were then harvested and proteins extracted using high-salt buffer, as described. Briefly, extracts were mixed with 2× sodium dodecyl sulfate (SDS) sample buffer (125 mM Tris-HCL pH 6.8; 4% SDS; 20% glycerol; 10% 2-mercaptoethanol) at a 1∶1 ratio and heated for 5 minutes at 100°C. Proteins (20 µg) were separated by 7.5% SDS-PAGE and transferred to polyvinylidene fluoride (PVDF) membrane (Millipore, Waltham, MA) and immunoblotted. Prestained molecular weight markers (BioRad; Hercules, CA) were included in each gel. Membranes were probed serially with antibody against Stat1 pY701 or Stat3 pY705 followed by antibody against Stat1 or Stat3 (Transduction labs, Lexington, KY) then antibody against β–actin (Abcam, Cambridge, MA). Membranes were stripped between antibody probing using Restore™ Western Blot Stripping Buffer (Thermo Fisher Scientific Inc., Waltham, MA) per the manufacturer's instructions. Horseradish peroxidase-conjugated goat-anti-mouse IgG was used as the secondary antibody (Invitrogen Carlsbad, CA) and the membranes were developed with enhanced chemiluminescence (ECL) detection system (Amersham Life Sciences Inc.; Arlington Heights, IL.).
Figure 2 Effect of compounds on ligand-mediated Stat3 and Stat1 phosphorylation. […] Cells were then stimulated with IL-6 (30 ng/ml) for 30 min. Protein extracts of cells were separated by SDS-PAGE, blotted and developed serially with antibodies to pStat3, total Stat3 and β-actin. Blots were stripped between each antibody probing. Band intensities were quantified by densitometry. The value of each pStat3 band was divided by its corresponding total Stat3 band intensity; the results were normalized to the DMSO-treated control value. This value was plotted as a function of the log compound concentration. The best-fitting curve was determined using 4-Parameter Logistic Model/Dose Response/XLfit 4.2, IDBS software and was used to calculate the IC50 value (Table 1). Each panel is representative of 3 or more experiments. In panel G, HepG2 cells were pretreated with DMSO alone or DMSO containing each of the compounds at a concentration of 300 µM for 60 min. Cells were then stimulated with IFN-γ (30 ng/ml) for 30 min. Protein extracts of cells were separated by SDS-PAGE and immunoblotted serially with antibodies to pStat1, total Stat1 and β-actin. Blots were stripped between each immunoblotting. The results shown are representative of 2 or more experiments.

Consider `O=C(O)c1ccc(C=CC(=O)c2ccc3c(c2)OCCO3)cc1` [Cpd3, 4-[3-(2,3-dihydro-1,4-benzodioxin-6-yl)-3-oxo-1-propen-1-yl]benzoic acid], for which the “Block of IFN-γ-stimulated Stat1 phosphorylation” value is recorded as “did not”.
